# Reference: PMC11249646, “Small-Molecule Disruptors of the Interaction between Calcium- and Integrin-Binding Protein 1 and Integrin αIIbβ3 as Novel Antiplatelet Agents” (ACS Pharmacology & Translational Science, 2024)
# Like-named read-outs stand apart in the source and are kept apart here.
# Molecular target: T1, CIB1 and αIIb interaction (CIB1-GST : F-αIIb peptide) (Homo sapiens, UniProt Q99828)
# T1 construct: made in house; host or cells: BL-21 plus RIL cells (E. coli)
# T1 sequence (Q99828 1-191): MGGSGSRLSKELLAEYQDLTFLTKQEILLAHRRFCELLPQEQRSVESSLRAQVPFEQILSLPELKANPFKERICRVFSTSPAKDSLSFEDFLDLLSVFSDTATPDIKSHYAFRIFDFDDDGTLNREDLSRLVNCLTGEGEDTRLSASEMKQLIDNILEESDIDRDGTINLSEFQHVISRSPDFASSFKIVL
# Test: FP assay, 1536-well qHTS format (primary and confirmatory screen)
# Assay type: binding
# Conditions: for Efficacy (%): negative = inhibition; for Curve Class: negative sign = inhibitory curve; for IC50: read-out: IC50
# [1] = qHTS primary screen hits, Table S2
# [2] = qHTS primary screen hits, Table S2, several classes where COUNT > 1
# [3] = qHTS primary screen of LOPAC/NPACT libraries
SMILES,Efficacy (%) [1],IC50 [1],Efficacy (%) [3],Curve Class [3],IC50 [3],further results
O=C1C(SCCO)=C(SCCO)C(=O)c2ccccc21 [NCGC00015729-08],-77%,44.7 µM,–,–,–,Curve Class [1]: -2.2
O=C(Nc1nc(-c2ccccc2)cs1)c1ccncc1NS(=O)(=O)c1ccc(F)c(F)c1.O=C(O)C(F)(F)F [NCGC00344933-01],-34%,79.4 µM,–,–,–,Curve Class [2]: -3
CCC(=O)NC(c1cccs1)c1ccc2cccnc2c1O (stereo not drawn) [NCGC00182903-03],-26%,50.1 µM,–,–,–,Curve Class [1]: -2.4
N#Cc1ccc(NS(=O)(=O)c2ccc(NC(=O)Cc3ccc(Cl)c(Cl)c3)cc2)cc1.O=C(O)C(F)(F)F [NCGC00253445-02],–,–,–,–,–,"Efficacy (%) (qHTS FP screen hits, Table S2): -18%; IC50 (qHTS FP screen hits, Table S2): 3.5 µM"
CC(=O)NCc1ccc(-c2csc(Nc3cccc(C)c3)n2)o1.O=C(O)C(F)(F)F [NCGC00304445-03],-38%,44.7 µM,–,–,–,Curve Class [2]: -2.4
OCC1O[C@H]([S-])[C@H](O)[C@@H](O)[C@@H]1O.[Au+] (stereo partly drawn) [NCGC00162223-02],–,–,-26%,-3,89.1 µM,–
CC1=C(C(=O)N(C)C)C(c2ccccc2Br)N=C(Nc2nc3ccccc3o2)N1.O=C(O)C(F)(F)F (stereo not drawn) [NCGC00229733-01],-27%,56.2 µM,–,–,–,Curve Class [1]: -2.4
COc1ccccc1N1CCNCC1.Cl [NCGC00015906-04],-80%,79.4 µM,–,–,–,Curve Class [1]: -3
COC(=O)C1C(O)CCC2CN3CCc4c([nH]c5ccccc45)C3CC21 (stereo not drawn) [NCGC00015878-08],–,–,-68%,-2.2,–,–
CN(C)[C@@H]1C(=O)C(C(=O)NCN2CCCC2)=C(O)[C@@]2(O)C(=O)C3=C(O)c4c(O)cccc4[C@@](C)(O)[C@H]3C[C@@H]12 [NCGC00263906-02],-27%,56.2 µM,–,–,–,Curve Class [1]: -2.4
O=C(Nc1ccc(S(=O)(=O)N2CCOCC2)cc1)c1ccc(CN2CCCc3ccccc32)cc1.O=C(O)C(F)(F)F [NCGC00348355-01],-15%,50.1 µM,–,–,–,Curve Class [2]: -2.4
CCn1cc(C(=O)O)c(=O)c2ccc(C)nc21 [NCGC00162271-02],–,–,-10%,-1.4,8.9 µM,–
COc1cccc(S(=O)(=O)Nc2cnccc2C(=O)Nc2nc(-c3ccccc3)cs2)c1.O=C(O)C(F)(F)F [NCGC00344906-01],-33%,50.1 µM,–,–,–,Curve Class [2]: -2.2
CC(=O)NC(C)c1cc(Cl)c2cccnc2c1O (stereo not drawn) [NCGC00183686-01],-34%,44.7 µM,–,–,–,Curve Class [2]: -2.4
CC(=O)NC(c1ccco1)c1cc(F)c2cccnc2c1O (stereo not drawn) [NCGC00183702-01],-24%,79.4 µM,–,–,–,Curve Class [1]: -2.4
CN(C)c1cc2c(Nc3ccc4c(cnn4Cc4ccccc4)c3)ncnc2cn1 [NCGC00015468-06],–,–,-28%,-2.4,56.2 µM,–
CC/C(=C(\c1ccc(O)cc1)c1ccc(OCCNC)cc1)c1ccccc1 [NCGC00386714-01],–,–,-33%,-2.4,79.4 µM,–
C=CCc1ccccc1OCC(O)CN[C@]1(C)CCC[C@H](C(C)(C)NC(=O)CBr)C1 (stereo partly drawn) [NCGC00162095-02],–,–,-35%,-2.4,56.2 µM,–
C=CC(=O)Nc1ccc(CN2C(=O)N(c3cc(OC)cc(OC)c3)Cc3cnc(Nc4ccc(N5CCN(C)CC5)cc4)nc32)cc1 [NCGC00484066-01],–,–,-26%,-2.4,56.2 µM,–
O=C(O)C(F)(F)F.O=C(O)c1ccc(-c2ccc3ncnc(NCc4cccs4)c3c2)o1 [NCGC00189277-01],-25%,89.1 µM,–,–,–,Curve Class [2]: -2.4
CC[C@]1(O)CC[C@H]2[C@@H]3CCC4=CCCC[C@@H]4[C@H]3CC[C@@]21C [NCGC00167514-02],-100%,31.6 µM,–,–,–,Curve Class [2]: -1.1

SMILES,Efficacy (%) [1],IC50 [1],Efficacy (%) [3],Curve Class [3],IC50 [3],further results
Cc1c2c(=O)n(-c3ccccc3)[nH]c2cc(=O)n1Cc1ccncc1.O=C(O)C(F)(F)F [NCGC00248478-01],-31%,50.1 µM,–,–,–,Curve Class [2]: -2.4
Ic1ccccc1CNC1C2CCN(CC2)C1C(c1ccccc1)c1ccccc1.O=C(O)C(=O)O (stereo not drawn) [NCGC00015587-03],–,–,-20%,-3,63.1 µM,–
Cc1cc(SCc2sc(-c3ccc(Cl)cc3)nc2C)ccc1OCC(=O)O.O=C(O)C(F)(F)F [NCGC00319056-01],-32%,56.2 µM,–,–,–,Curve Class [1]: -2.4
C=CCNc1oc(-c2ccc(F)cc2)nc1C#N.O=C(O)C(F)(F)F [NCGC00183411-01],-27%,50.1 µM,–,–,–,Curve Class [2]: -2.4
O=C(O)c1cc(/N=N/c2ccc(S(=O)(=O)Nc3ccccn3)cc2)ccc1O [NCGC00090903-11],–,–,–,–,–,"Efficacy (%) (qHTS FP screen hits, Table S2): -43%; Curve Class (qHTS FP screen hits, Table S2, one class per curve where COUNT > 1): -2.2; IC50 (qHTS FP screen hits, Table S2): 25.1 µM"
COC(=O)CC1OC(C)C2=C(O)c3c(O)cccc3C(=O)C23OC13 (stereo not drawn) [NCGC00381362-01],–,–,-22%,-2.4,25.1 µM,–
Nc1cccc2c(N)cccc12 [NCGC00091284-03],-33%,113 µM,–,–,–,–
Cn1cc(-c2cnc3ccc4ccc(CS(=O)(=O)NCc5ccccn5)cc4c(=O)c3c2)cn1 [NCGC00378567-02],–,–,-17%,-1.4,10 µM,–
COc1ccc(C(=O)O[C@H]2C=COC=C3C=C4C(=O)N(C)C(=S)C(=O)N4[C@@H]32)cc1Oc1cc(C=O)ccc1O [NCGC00384899-01],-66%,22.4 µM,–,–,–,Curve Class [1]: -2.2
CN(C)CCCNc1cc(O)c2ncccc2c1.O=C(O)C(F)(F)F [NCGC00183792-01],-32%,56.2 µM,–,–,–,Curve Class [1]: -2.4
O=C(Nc1ccc([N+](=O)[O-])cc1Cl)c1cc(Cl)ccc1O [NCGC00015735-08],–,–,-12%,-2.4,63.1 µM,–
O=C(O)C(F)(F)F.O=C1c2ccccc2NC(c2ccc(-c3cccc([N+](=O)[O-])c3)o2)N1O (stereo not drawn) [NCGC00183384-01],-23%,56.2 µM,–,–,–,Curve Class [2]: -2.4
O=C(O)C(F)(F)F.O=c1[nH]c2ccccc2n1C1CCN(CCCC(c2ccc(F)cc2)c2ccc(F)cc2)CC1 [NCGC00015802-18],-216%,89.1 µM,–,–,–,Curve Class [1]: -3
CCOc1ccc(-c2cc(NC(=O)c3c(F)cccc3F)c(C(=O)O)s2)cc1 [NCGC00386875-01],–,–,-21%,-1.4,14.1 µM,–
CO[C@@H](Cc1ccc(OCCc2nc(-c3ccccc3)oc2C)c2ccsc12)C(=O)O [NCGC00378922-01],–,–,-15%,-1.4,20 µM,–
CC1CC2(O)OC(=O)C3=C2C(CCC3)[C@@]12C[C@@H](c1ccoc1)OC2=O (stereo partly drawn) [NCGC00385045-01],–,–,-23%,-2.4,31.6 µM,–
O=C(O)c1ccc(S(=O)(=O)N[C@@H](Cc2ccc(O)cc2)C(=O)O)cc1 [NCGC00161808-01],-21%,44.7 µM,–,–,–,Curve Class [2]: -2.4
Cc1ccc(NS(=O)(=O)c2cc(Br)cc3c2NC(=O)CC3)cc1Cl.O=C(O)C(F)(F)F [NCGC00242331-01],-33%,50.1 µM,–,–,–,Curve Class [1]: -2.2
CC(C)N(CCC(=O)c1ccc2ccccc2c1)Cc1ccccc1.Cl [NCGC00016107-09],–,–,-65%,-1.2,28.2 µM,–
O=C(O)C(F)(F)F.O=C(c1ccc2c(c1)ncn2-c1ccc(C(F)(F)F)cc1)N1CCCCC1 [NCGC00262230-01],-43%,44.7 µM,–,–,–,Curve Class [1]: -2.2
